Measured values reported in US20180057465A1, “Inhibitors of Necroptosis” (Catalyst Therapeutics Pty Ltd, priority 2015, published 2018).
Where two headings read alike, the source gives them in different places.

Assays:
[1] = system: U937 human histiocytic leukemia cell line; assay: Assay 2: inhibition of TSQ induced necroptosis, 96 well plate format; conditions: read-out: Inhibition of TSQ-induced necroptosis (cell based assay) IC50 (U937, TSQ nM)
Method: (§1) Assay 2: Screening Compounds for Inhibition of TSQ Induced Necroptosis, 96 Well Plate Format.
(§2) Cell Line ID: U937 human histiocytic leukemia cell line.
(§3) Cell Concentration (cells/well): Final cell density is 5000 cells per well.
(§4) Cell growth medium: HT-RPMI+7.4% FBS. Cells are cultured in Corning 150 cm^2 tissue culture flasks with vented caps at 37° C./5% CO2.
(§5) Incubation time (hours): 48 hours following addition of compounds and death stimuli
(§6) Compound concentration: 100 nM
(§7) DMSO final concentration (% v/v): 0.3%.
(§8) Compounds that are in the Death Stimulation Cocktail and Their Final Concentrations:
(§9) hTNF-Fc (100 ng/ml)—produced by standard procedures as shown in Bossen et al., J Biol Chem, 2006, 281(20), 13964-13971.
(§10) Compound A (500 nM)—Smac mimetic, Tetralogic
(§11) Q-VD-OPh (10 μM)—MP Biomedicals
(§12) Data is loaded into Abase and normalised. 10 points titration curve are fitted with the 4 parameter logistic nonlinear regression model and the IC50 reported reflects the inflection point of the curve for curve fitting.

[2] = system: U937; assay: Off-target effect (cell based assay), reported with assay 2; conditions: Homo sapiens
Method: as §1, §2, §3, §4, §5, §6, §7, §12

[3] = system: U937 human histiocytic leukemia cell line; assay: Assay 1: inhibition of TSQ induced necroptosis, 96 well plate format; type: cell-based
Method: For in vitro analysis, the necroptosis inhibition may be determined by assays used to measure TSQ-induced necroptosis, as described in the biological tests defined herein.
(§13) Assay 1: Screening Compounds for Inhibition of TSQ Induced Necroptosis, 96 Well Plate Format.
(§14) Cell Line ID: […] human histiocytic leukemia cell line.
(§15) Cell Concentration (cells/well): 35,000 per well in 120 μL of media, counted and plated immediately prior to addition of inhibitor and death stimuli. Final well volume of 150 μL after addition of compounds and death stimuli
(§16) Cell growth medium: HTRPMI (WEHI Media kitchen, contains L-Glutamine and penicillin, streptomycin)—supplemented with 7.4% v/v FCS (Gibco, Precision Plus. Lot #1221437)
as §5
(§17) Compound Concentrations—Log Titrations:
(§18) DMSO final concentration (% v/v): 1.2% in 10 μM well to 0.2% in the control well.
as §8, §9, §10, §11
(§19) Cells treated with PI staining (1 μg/ml) and analysed by flow cytometry

[4] = system: U937 human histiocytic leukemia cell line; assay: Off-target effect (cell based assay), reported with assay 1
Method: as §13, §14, §15, §16, §5, §17, §18, §19

[5] = U-937, Table 2, assay 2, U937, 5000 cells per well, hTNF-Fc 100 ng/ml, Compound A 500 nM, Q-VD-OPh 10 μM, 48 hours
[6] = U-937, Table 2, assay 2, U937, read-out: Off-target effect (cell based assay) IC50 (U937)
[7] = U-937, read-out: Off-target effect (cell based assay) IC50 (U937, μM)
[8] = U-937, Table 1, assay 1, hTNF-Fc 100 ng/ml, Compound A 500 nM, Q-VD-OPh 10 μM, 48 hours, PI staining, flow cytometry, read-out: Inhibition of TSQ-induced necroptosis (cell based assay) IC50
[9] = U-937, Table 1, assay 1, read-out: Off-target effect (cell based assay) IC50
[10] = U-937, comparison tables of the description, values as in Table 1 (assay 1), read-out: IC50 (nM) Necroptosis inhibition
[11] = U-937, comparison tables of the description, values as in Table 1 (assay 1), read-out: IC50 (nM) Off-Target Effect

SMILES: CNC(=O)c1cc(Nc2nccc(N(C)c3ccc(NC(=O)Nc4cccc(CC(F)(F)F)c4)cc3)n2)ccc1C [Compound 38, N,2-dimethyl-5-((4-(methyl(4-(3-(3-(2,2,2-trifluoroethyl)phenyl)ureido)phenyl)amino)pyrimidin-2-yl)amino)benzamide]
- IC50 [1, 5]: 2.3 nM
- IC50 [2, 6]: 0.231 µM

SMILES: CNC(=O)c1cc(Nc2nccc(N(C)c3ccc(NC(=O)Nc4cc(C#N)cc(C(F)(F)F)c4)cc3)n2)ccc1C [Compound 42]
- IC50 [1, 5]: 49 nM
- IC50 [2, 6]: > 10 µM

SMILES: CNC(=O)c1cc(Nc2nccc(N(C)c3ccc(NC(=O)Nc4cccc(OC(F)(F)F)c4)cc3)n2)ccc1C [Compound 39, N,2-dimethyl-5-((4-(methyl(4-(3-(3-(trifluoromethoxy)phenyl)ureido)phenyl)amino)pyrimidin-2-yl)amino)benzamide]
- IC50 [1, 5]: 3.9 nM
- IC50 [2, 6]: 0.419 µM

SMILES: Cc1ccc(Nc2nccc(N(C)c3ccc(NC(=O)Nc4ccc(OC(F)(F)F)cc4)cc3)n2)cc1N1CC2(CCOCC2)CC1=O [Compound 41, 1-(4-(methyl(2-((4-methyl-3-(3-oxo-8-oxa-2-azaspiro[4.5]decan-2-yl)phenyl)amino)pyrimidin-4-yl)amino)phenyl)-3-(4-(trifluoromethoxy)phenyl)urea]
- IC50 [1, 5]: 14 nM
- IC50 [2, 6]: > 10 µM

SMILES: CNC(=O)c1cc(Nc2ncc(C)c(N(C)c3ccc(NC(=O)Nc4ccc(OC(F)(F)F)cc4)cc3)n2)ccc1C [Compound 6, N,2-dimethyl-5-((5-methyl-4-(methyl(4-(3-(4-(trifluoromethoxy)phenyl)ureido)phenyl)amino)pyrimidin-2-yl)amino)benzamide]
- IC50 ([1]; U-937, 48 h): 29 nM
- IC50 [2, 7]: > 1000 µM

SMILES: CN(c1ccc(NC(=O)Nc2ccc(OC(F)(F)F)cc2)cc1)c1ccnc(Nc2cccc(N3CC4(CCOCC4)CC3=O)c2)n1 [Compound 40, 1-(4-(methyl(2-((3-(3-oxo-8-oxa-2-azaspiro[4.5]decan-2-yl)phenyl)amino)pyrimidin-4-yl)amino)phenyl)-3-(4-(trifluoromethoxy)phenyl)urea]
- IC50 [1, 5]: 7.5 nM
- IC50 [2, 6]: > 10 µM

SMILES: Cc1ccc(Nc2nccc(N(C)c3ccc(NC(=O)Nc4cc(F)cc(C(F)(F)F)c4)cc3)n2)cc1C(=O)OCCO [Compound 36, 2-hydroxyethyl 5-((4-((4-(3-(3-fluoro-5-(trifluoromethyl)phenyl)ureido)phenyl)(methyl)amino)pyrimidin-2-yl)amino)-2-methylbenzoate]
- IC50 [1, 5]: 23 nM
- IC50 [2, 6]: 2.42 µM

SMILES: Cc1ccc(Nc2nccc(N(C)c3ccc(NC(=O)Nc4cc(F)cc(C(F)(F)F)c4)cc3)n2)cc1N1CCNC1=O [Compound 34, 1-(3-fluoro-5-(trifluoromethyl)phenyl)-3-(4-(methyl(2-((4-methyl-3-(2-oxoimidazolidin-1-yl)phenyl)amino)pyrimidin-4-yl)amino)phenyl)urea]
- IC50 [1, 5]: 29 nM
- IC50 [3, 8]: 23 nM
- IC50 [4, 9]: 2420 nM
- IC50 [2, 6]: 0.513 µM

SMILES: CNC(=O)c1cc(Nc2nccc(N(C)c3ccc(NC(=O)Nc4cc(C(F)(F)F)cc(C(F)(F)F)c4)cc3)n2)ccc1C [Compound 37, 5-((4-((4-(3-(3,5-bis(trifluoromethyl)phenyl)ureido)phenyl)(methyl)amino)pyrimidin-2-yl)amino)-N,2-dimethylbenzamide]
- IC50 [1, 5]: 71 nM
- IC50 [2, 6]: 1.09 µM

SMILES: CN(c1ccc(NC(=O)Nc2ccc(OC(F)(F)F)cc2)cc1)c1ccnc(Nc2cccc(S(N)(=O)=O)c2)n1 [drawing 174, reference compound]
- IC50 ([1]; U-937, 48 h): 75 nM
- IC50 [2, 7]: 1.5 µM

SMILES: CNC(=O)c1cc(Nc2nccc(N(C)c3ccc(NC(=O)Nc4cc(F)cc(C(F)(F)F)c4)cc3)n2)ccc1CN1CCN(C)CC1 [Compound 35, 5-((4-((4-(3-(3-fluoro-5-(trifluoromethyl)phenyl)ureido)phenyl)(methyl)amino)pyrimidin-2-yl)amino)-N-methyl-2-((4-methylpiperazin-1-yl)methyl)benzamide]
- IC50 [1, 5]: 45 nM
- IC50 [2, 6]: 0.841 µM

SMILES: CNC(=O)c1cc(Nc2nccc(N(C)c3ccc(NC(=O)Nc4cc(F)cc(C(F)(F)F)c4)cc3)n2)ccc1C [Compound 16, 5-(4-((4-(3-(3-fluoro-5-(trifluoromethyl)phenyl)ureido)phenyl)(methyl)amino)-pyrimidin-2-ylamino)-N,2-dimethylbenzamide]
- IC50 [3, 8]: 10.8 nM
- IC50 [4, 9]: 1230 nM

SMILES: CN(c1ccc(NC(=O)Nc2ccc(OC(F)(F)F)cc2)cc1)c1nc(Nc2cccc(S(N)(=O)=O)c2)ncc1C(F)(F)F [Compound 6a, 3-((4-(Methyl(4-(3-(4-(trifluoromethoxy)phenyl)ureido)phenyl)amino)-5-(trifluoromethyl)pyrimidin-2-yl)amino)benzenesulfonamide]
- IC50 [3, 10]: > 10000 nM
- IC50 [4, 11]: 5070 nM

SMILES: CN(c1ccc(NC(=O)Nc2ccc(OC(F)(F)F)cc2)cc1)c1ccnc(Nc2cccc(C#N)c2)n1 [Compound 21, 1-(4-((2-(3-cyanophenylamino)pyrimidin-4-yl)(methyl)amino)phenyl)-3-(4-(trifluoromethoxy)phenyl)urea]
- IC50 [3, 8]: 476 nM
- IC50 [4, 9]: > 10000 nM

SMILES: CN(c1ccc(NC(=O)Nc2ccc(OC(F)(F)F)cc2)cc1)c1nc(Nc2cccc(S(N)(=O)=O)c2)ncc1Cl [Compound 2, 3-((5-Chloro-4-(methyl(4-(3-(4-(trifluoromethoxy)phenyl)ureido)phenyl)amino)pyrimidin-2-yl)amino) benzenesulfonamide]
- IC50 [3, 8]: 29.5 nM
- IC50 [3, 10]: 29.5 nM
- IC50 [4, 9]: 2110 nM
- IC50 [4, 11]: 2110 nM

SMILES: Cc1ccc(Nc2nccc(N(C)c3ccc(NC(=O)Nc4ccc(OC(F)(F)F)cc4)cc3)n2)cc1C(N)=O [Compound 4, 2-Methyl-5-((4-(methyl(4-(3-(4-(trifluoromethoxy)phenyl)ureido)phenyl)amino)pyrimidin-2-yl)amino) benzamide]
- IC50 [3, 8]: 154 nM
- IC50 [4, 9]: 7410 nM

SMILES: CN(c1ccc(NC(=O)Nc2ccc(OC(F)(F)F)cc2)cc1)c1ccnc(Nc2cccc(N3CCCC3=O)c2)n1 [Compound 8, 1-(4-(Methyl(2-((3-(2-oxopyrrolidin-1-yl)phenyl)amino)pyrimidin-4-yl)amino)phenyl)-3-(4-(trifluoromethoxy)phenyl)urea]
- IC50 [3, 8]: 75.4 nM
- IC50 [3, 10]: 75.4 nM
- IC50 [4, 9]: > 10000 nM
- IC50 [4, 11]: > 10000 nM

SMILES: Cc1ccc(Nc2nccc(N(C)c3ccc(NC(=O)Nc4ccc(OC(F)(F)F)cc4)cc3)n2)cc1S(N)(=O)=O [Compound 21 from AU 2014903569, reference compound]
- IC50 [3, 10]: 72.7 nM
- IC50 [4, 11]: 3600 nM

SMILES: CNC(=O)c1cc(Nc2nccc(N(C)c3ccc(NC(=O)Nc4cc(Cl)cc(C(F)(F)F)c4)cc3)n2)ccc1C [Compound 29, 5-((4-((4-(3-(3-chloro-5-(trifluoromethyl)phenyl)ureido)phenyl)(methyl)amino)pyrimidin-2-yl)amino)-N,2-dimethylbenzamide]
- IC50 [3, 8]: 20 nM
- IC50 [4, 9]: 2050 nM
